Measured values as given in article PMC8745314, “Novel Tetrazole-Based Antimicrobial Agents Targeting Clinical Bacteria Strains: Exploring the Inhibition of Staphylococcus aureus DNA Topoisomerase IV and Gyrase” (International Journal of Molecular Sciences, 2021).

Legend:
[1] = system: standard and clinical Gram-positive and Gram-negative bacterial strains; assay: MIC range over standard and clinical strains (abstract); assay type: cell-based
Experimental: Eleven novel imide-tetrazoles were synthesized. In the initial stage of research, in silico structure-based pharmacological prediction was conducted. All compounds were screened for antimicrobial activity using standard and clinical strains. Within the studied group, compounds 1–3 were recognized as leading structures with the most promising results in antimicrobial studies. […] Additionally, all three inhibited the growth of all clinical Staphylococci panels: Staphylococcus aureus (T5592; T5591) and Staphylococcus epidermidis (5253; 4243) with MIC values of 0.8 μg/mL. Selected compounds were examined in topoisomerase IV decatenation assay and DNA gyrase supercoiling assay, followed by suitable molecular docking studies to explore the possible binding modes. […] The compounds 1–3 proposed here provide a promising basis for further exploration towards novel antimicrobial drug candidates.
The antimicrobial assays were conducted using reference strains of bacteria derived from international microbe collections: American Type Culture Collection (ATCC) and National Collection of Type Culture (NCTC). The following standard strains of bacteria were used: Gram-positive—Staphylococcus aureus NCTC 4163, Staphylococcus aureus ATCC 25923, Staphylococcus aureus ATCC 6538, Staphylococcus aureus ATCC 29213, Staphylococcus epidermidis ATCC 12228, Staphylococcus epidermidis ATCC 35984, Gram-negative: Escherichia coli ATCC 25922, Pseudomonas aeruginosa ATCC 15442. […] MIC was determined by the two-fold serial broth microdilution method in 96-well microtitration plates using Mueller–Hinton II broth medium (Becton Dickinson, Franklin Lakes, NJ, USA). […]

[2] = system: standard bacteria strains; assay: MIC ranges over the panel of standard strains; assay type: cell-based
Experimental: All synthesized compounds were tested in vitro against a set of bacteria, including representative standard Gram-positive and Gram-negative rods. Compounds were screened for their minimal inhibitory concentrations (MICs). […] These three compounds were also found to be good inhibitors of the growth of Gram-negative rods: […] The antimicrobial assays were conducted using reference strains of bacteria derived from international microbe collections: American Type Culture Collection (ATCC) and National Collection of Type Culture (NCTC). The following standard strains of bacteria were used: Gram-positive-Staphylococcus aureus NCTC 4163, Staphylococcus aureus ATCC 25923, Staphylococcus aureus ATCC 6538, Staphylococcus aureus ATCC 29213, Staphylococcus epidermidis ATCC 12228, Staphylococcus epidermidis ATCC 35984, Gram-negative: Escherichia coli ATCC 25922, Pseudomonas aeruginosa ATCC 15442. Clinical strains of bacteria used in this study: Gram-positive: Staphylococcus epidermidis 5253, Staphylococcus epidermidis 4243, Staphylococcus aureus […], Staphylococcus aureus […] and Gram-negative: Escherichia coli 520, Escherichia coli 600, Klebsiella pneumoniae 510 and Pseudomonas aeruginosa 659 were obtained from the collection of the Department of Pharmaceutical Microbiology, Medical University of Warsaw, Poland and they were isolated from different biological materials taken from the patients hospitalized in the Warsaw Medical University hospitals. Antimicrobial activity was examined by the minimal inhibitory concentration (MIC) method under standard procedures provided by CLSI with some modifications. MIC was determined by the two-fold serial broth microdilution method in 96-well microtitration plates using Mueller-Hinton II broth medium (Becton Dickinson, Franklin Lakes, NJ, USA). The final inoculum of all studied bacteria was 10^6 CFU/mL (colony forming unit per milliliter). The stock solution of tested compounds was prepared in dimethyl sulfoxide (DMSO) and diluted to a maximum of 1% of solvent content with a sterile medium.

[3] = Gram-negative rods: E. coli and P. aeruginosa (standard strains)
[4] = against standard Gram-positive Staphylococci

SMILES	MIC values, range [1]	MIC values, range [2, 3]	MIC values, range [2, 4]
CC1=C(C)C2(C)CC1(C)C1C(=O)N(Nc3nnnn3-c3cccc(C(F)(F)F)c3)C(=O)C12 (stereo not drawn) [Compound 1, 4,5,6,7-Tetramethyl-2-((1-(3-(trifluoromethyl)phenyl)-1H-tetrazol-5-yl)amino)-3a,4,7,7a-tetrahydro-1H-4,7-methanoisoindole-1,3(2H)-dione]	0.8 to 3.2 µg/mL	0.4 to 25.6 µg/mL	0.1 to 3.2 µg/mL
CC1=C(C)C2(C)CC1(C)C1C(=O)N(Nc3nnnn3-c3ccccc3Cl)C(=O)C12 (stereo not drawn) [Compound 2, 2-((1-(2-Chlorophenyl)-1H-tetrazol-5-yl)amino)-4,5,6,7-tetramethyl-3a,4,7,7a-tetrahydro-1H-4,7-methanoisoindole-1,3(2H)-dione]	0.8 to 3.2 µg/mL	0.4 to 25.6 µg/mL	0.1 to 3.2 µg/mL
CC1=C(C)C2(C)CC1(C)C1C(=O)N(Nc3nnnn3-c3ccccc3Br)C(=O)C12 (stereo not drawn) [Compound 3, 2-((1-(2-Bromophenyl)-1H-tetrazol-5-yl)amino)-4,5,6,7-tetramethyl-3a,4,7,7a-tetrahydro-1H-4,7-methanoisoindole-1,3(2H)-dione]	0.8 to 3.2 µg/mL	0.4 to 25.6 µg/mL	0.1 to 3.2 µg/mL
